# Laboratory results: patent US8618147B2, “Modified macrophage migration inhibitory factor inhibitors” (The Feinstein Institute for Medical Research, priority 2006, dated 2013)
# “Also recorded” adds a separate entry of the source.
# Tests used:
# [1] = versus 40% control; cited from earlier work
# MIF = MIF (Homo sapiens (Human), UniProt P14174); test: MIF dopachrome tautomerase assay; format: biochemical; settings: (S)-isomer relative to (R)-isomer
# Method: MIF tautomerase activity was measured by UV-Visible recording spectrophotometry (SHIMADZU, UV1600U). A fresh stock solution of L-dopachrome methyl ester was prepared at 2.4 mM through oxidation of L-3,4-dihydroxyphenylalanine methyl ester with sodium periodate. 1 μL of MIF solution (800-900 ng/mL) and 1 μL of a DMSO solution with various concentrations of the enzymatic inhibitor were added into a plastic cuvette (10 mm, 1.5 mL) containing 0.7 mL assay buffer (50 mM potassium phosphate, pH 7.2). Then L-dopachrome methyl ester solution (0.3 mL) was added to the assay buffer mixture. Activity was determined at room temperature and the spectrometric measurements were made at λ=475 nm for 20 seconds by monitoring the rate of decolorization of L-dopachrome methyl ester in comparison to a standard solution.
# [2] = system: rheumatoid arthritis fibroblast-like synoviocytes (RA-FLS); test: Cell invasion through Matrigel Invasion Chambers; format: cell-based; settings: 100 nM ISO-63 or 25 μM ISO-1, one day treatment, 24 hours incubation
# Method: Invasion was assayed by measuring cell invasion through Matrigel Invasion Chambers (Becton Dickinson, Mass.). […] 500 μl of whole medium containing 10% FBS and 10% human serum and was added to the bottom chamber. After 24 hours of incubation at 37° C., cells on the upper surface of the filter were wiped off with a Q-tip and the filter was fixed in 4% formaldehyde/PBS. After staining with crystal violet, migrated cells were counted using an inverted microscope.
# leukocyte recruitment = test: Air pouch carrageenan model of acute inflammation, leukocyte recruitment; format: in vivo, Swiss Webster male mice; settings: 40 mg/kg single i.p., 15 min before 1% carrageenan into air pouch, 5 hr after carrageenan
# Method: Air pouches were made according to standard procedures (Garcia-Ramallo et al., 2002) on Swiss Webster male mice (25-30 g) by injecting sterile air s.c. on day 0 (6 ml) and day 3 (3 ml). […] After 15 min, the animals were challenged by injecting 1 ml 1% carrageenan (in PBS) into the air pouch cavity. Five hr after carrageenan injection the animals were sacrificed, the pouches washed with PBS, exudate collected, and the total number of infiltrating cells quantitated.
# Chain of MIF (P14174 2-115): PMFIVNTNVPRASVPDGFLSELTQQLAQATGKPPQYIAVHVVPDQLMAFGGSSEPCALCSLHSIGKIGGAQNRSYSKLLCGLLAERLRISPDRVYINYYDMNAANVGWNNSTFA
structure (smiles),measurement,setting,value
"COC(=O)C[C@@H]1CC(c2ccc(O)cc2)=NO1 (racemic) [ISO-1, (S,R)-3-(4-hydroxyphenyl)-4,5-dihydro-5-isoxazole acetic acid methyl ester, reference compound]",protection in sepsis model,[1],80%
COC(=O)C[C@@H]1CC(c2ccc(O)cc2)=NO1 [(S)-ISO-1],less active than the (R)-isomer,MIF,50%
CC(C)C(OC(=O)CC1CC(c2ccc(O)c(F)c2)=NO1)C(C)C (stereo not shown) [ISO-63],invasion of RA-FLS into Matrigel (migrated cells),[2],inhibits the invasion; also recorded: reduced cell invasion to a much greater extent than the ISO-1 treatment
same,leukocyte recruitment (total number of infiltrating cells),leukocyte recruitment,inhibits leukocyte recruitment; also recorded: caused a significant reduction in leukocyte recruitment
